According to US5741664A, “Subtilisin variants capable of cleaving substrates containing dibasic residues” (priority 1995, dated 1998):
Residues, ends and D or L forms follow the SMILES beside them.

Key:
[1] = biological target: T1, KEX2 (yeast pro-hormone processing protease) (Saccharomyces cerevisiae, UniProt P13134); conditions: KEX2 cleaving Boc-RVRR-MCA; Brenner and Fuller 1992; cited from earlier work
T1 sequence (P13134 114-613 limits assumed): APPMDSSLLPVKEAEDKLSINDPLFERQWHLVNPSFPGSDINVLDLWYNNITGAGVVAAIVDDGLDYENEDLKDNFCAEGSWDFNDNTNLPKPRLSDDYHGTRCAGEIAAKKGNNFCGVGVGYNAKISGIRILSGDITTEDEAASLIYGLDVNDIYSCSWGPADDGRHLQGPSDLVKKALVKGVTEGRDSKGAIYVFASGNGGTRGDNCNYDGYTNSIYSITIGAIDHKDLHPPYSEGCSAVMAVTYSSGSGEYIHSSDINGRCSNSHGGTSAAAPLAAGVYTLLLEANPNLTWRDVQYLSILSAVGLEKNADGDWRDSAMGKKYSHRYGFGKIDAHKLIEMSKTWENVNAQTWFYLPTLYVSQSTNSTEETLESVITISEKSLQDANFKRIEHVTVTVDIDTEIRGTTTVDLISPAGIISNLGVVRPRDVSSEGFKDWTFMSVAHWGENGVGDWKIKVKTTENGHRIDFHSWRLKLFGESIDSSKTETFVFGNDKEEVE

[2] = biological target: T2, Bacillus amyloliquefaciens subtilisin BPN' variant N62D/G166D (mature enzyme SEQ ID NO: 72) (Bacillus amyloliquefaciens, UniProt P00782, G273D/N169D); test: hydrolysis of p-nitroanilide tetrapeptide substrates, initial rates; assay type: biochemical; conditions: suc-AAXX-pna series; 20 mM Tris-Cl pH 8.2, 4% DMSO, 25 C
T2 construct: made in house; host or cells: Bacillus subtilis BG2036 (secreted, purified from culture supernatant)
Method: (§1) Despite the less than additive effects seen for the two charged substitutions in the S2 site, we decided to combine the best S2 site variant (N62D) with either of the acidic substitutions in the S1 site. The two double mutants, N62D/G166E and N62D/G166D, were analyzed with substrates having the form, suc-AAXX-pna (SEQ ID NO: 71) where XX was either KK (SEQ ID NO: 66), KR (SEQ ID NO: 67), KF (SEQ ID NO: 62), PK (SEQ ID NO: 58), PF (SEQ ID NO: 56) or AF (SEQ ID NO: 63)(FIG. 4). The wild-type preference was AF>PF~KF>KK~PK>KR, whereas the double mutants had the preference KK>KR>KF>PK~AF>PF. […]
(§2) Subtilisins were assayed by measuring the initial rates of hydrolysis of p-nitroanilide tetrapeptide substrates in 0.4 mL 20 mM Tris-Cl pH 8.2, 4 % (v/v) dimethyl sulfoxide at (25±0.2)° C. as described previously (Estell, D. A., Graycar, T. P., Miller, J. V., Powers, D. B., Burnier, J. P., Ng, P. G. and Wells, J. A. [1986] Science 233:659-663). Enzyme concentrations [E]0 were determined spectrophotometrically using E280 nm 0.1%=1.17 (Matsubara, H.; Kasper, C B.; Brown, D. M.; and Smith, E. L. (1965) J. Biol. Chem.,240:1125-1130.), and were typically 5-50 nM in reactions. Initial rates were determined for nine to twelve different substrate concentrations over the range of 0.001-2.0 mM. […]

[3] = biological target: T3, Bacillus amyloliquefaciens subtilisin BPN' variant N62D/G166E (Bacillus amyloliquefaciens, UniProt P00782, G273E/N169D); test: as above; assay type: biochemical; conditions: suc-AAXX-pna series; 20 mM Tris-Cl pH 8.2, 4% DMSO, 25 C
T3 construct: made in house; host or cells: Bacillus subtilis BG2036 (secreted, purified from culture supernatant)
Method: as §1, §2

[4] = biological target: T4, Bacillus amyloliquefaciens subtilisin BPN' variant G166D (Bacillus amyloliquefaciens, UniProt P00782, G273D); test: as above; assay type: biochemical; conditions: suc-AAPX-pna series; 20 mM Tris-Cl pH 8.2, 4% DMSO, 25 C
T4 construct: made in house; host or cells: Bacillus subtilis BG2036 (secreted, purified from culture supernatant)
Excerpt: To probe the effects of the G166E and G166D on specificity at the P1 position we used substrates having the form suc-AAPX-pna (SEQ ID NO: 69) where X was either Lys (SEQ ID NO: 58), Arg (SEQ ID NO: 59), Phe (SEQ ID NO: 56), Met (SEQ ID NO: 60) or Gln (SEQ ID NO: 61). Whereas the wild-type enzyme preferred Phe>Met>Lys>Arg>Gln, the G166E preferred Lys~Phe>Arg~Met>Gln, and G166D preferred Lys>Phe~Arg~Met>Gln. Thus, both the acidic substitutions at position 166 caused a shift in preference for basic residues as previously reported (Wells, J. A., Powers, D. B., Bott, R. R., Graycar, T. P. and Estell, D. A. (1987a), Proc. Natl. Acad. Sci. USA 84:1219-1223).
as §2

[5] = biological target: T5, subtilisin (subtilisin BPN' from Bacillus amyloliquefaciens, wild type) (Bacillus amyloliquefaciens, UniProt P00782); conditions: subtilisin cleaving suc-AAPF-pna; Estell et al. 1986; cited from earlier work
T5 sequence (P00782 108-382): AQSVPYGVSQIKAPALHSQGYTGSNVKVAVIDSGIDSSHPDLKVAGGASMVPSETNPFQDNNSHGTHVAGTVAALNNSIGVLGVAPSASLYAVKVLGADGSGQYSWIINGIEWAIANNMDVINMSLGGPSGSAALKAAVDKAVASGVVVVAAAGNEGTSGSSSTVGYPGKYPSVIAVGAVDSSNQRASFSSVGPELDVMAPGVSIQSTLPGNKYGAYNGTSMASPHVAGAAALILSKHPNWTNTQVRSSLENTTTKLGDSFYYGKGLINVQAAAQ

T2 sequence (P00782 108-382 N169D/G273D): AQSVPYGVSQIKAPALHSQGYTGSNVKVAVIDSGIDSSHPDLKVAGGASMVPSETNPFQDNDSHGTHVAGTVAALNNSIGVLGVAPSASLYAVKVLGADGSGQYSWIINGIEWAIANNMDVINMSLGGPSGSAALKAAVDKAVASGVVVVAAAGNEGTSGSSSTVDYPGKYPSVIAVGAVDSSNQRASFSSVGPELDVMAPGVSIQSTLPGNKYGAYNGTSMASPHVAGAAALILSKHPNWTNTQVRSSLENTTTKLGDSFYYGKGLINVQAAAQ
T3 sequence (P00782 108-382 N169D/G273E): as the sequence (P00782 108-382 N169D/G273D) above, with D166E counted along it
T4 sequence (P00782 108-382 G273D): as the sequence (P00782 108-382 N169D/G273D) above, with D62N counted along it

For `Cc1cc(=O)oc2cc(NC(=O)[C@H](CCCNC(=N)N)NC(=O)[C@H](CCCNC(=N)N)NC(=O)[C@@H](NC(=O)[C@H](CCCNC(=N)N)NC(=O)OC(C)(C)C)C(C)C)ccc12` [Boc-RVRR-MCA, N-t-butoxy carbonyl-arginine-valine-arginine-arginine-7-amido-4-methyl coumarin] (HELM PEPTIDE1{[CC(C)(C)OC(=O)[*:2]].R.V.R.R.[Cc1cc(=O)oc2cc(N[*:1])ccc12]}$$$$V2.0), which kcat/Km [1] is on record?
The kcat/Km was 1e+06 M⁻¹ s⁻¹.

Which “ratio of catalytic efficiencies (kcat/Km), Lys-Lys substrate versus Lys-Phe substrate” value [2] does the source give for `C[C@H](NC(=O)CCC(=O)O)C(=O)N[C@@H](C)C(=O)N[C@@H](CCCCN)C(=O)N[C@@H](CCCCN)C(=O)Nc1ccc([N+](=O)[O-])cc1` [Lys-Lys substrate] (HELM PEPTIDE1{[O=C(O)CCC(=O)[*:2]].A.A.K.K.[O=[N+]([O-])c1ccc(N[*:1])cc1]}$$$$V2.0) here?
Its value is 18 times faster.

And the “ratio of catalytic efficiencies (kcat/Km), Lys-Lys substrate versus Lys-Phe substrate” value [3]?
The value was “about 8 times faster”.

For `C[C@H](NC(=O)CCC(=O)O)C(=O)N[C@@H](C)C(=O)N1CCC[C@H]1C(=O)N[C@@H](CCCCN)C(=O)Nc1ccc([N+](=O)[O-])cc1` [Lys P1 substrate] (HELM PEPTIDE1{[O=C(O)CCC(=O)[*:2]].A.A.P.K.[O=[N+]([O-])c1ccc(N[*:1])cc1]}$$$$V2.0), which “ratio of catalytic efficiencies (kcat/Km), Lys P1 substrate versus Phe P1 substrate” value [4] is on record?
The value was “about 3 times faster”.

With `C[C@H](NC(=O)CCC(=O)O)C(=O)N[C@@H](C)C(=O)N1CCC[C@H]1C(=O)N[C@@H](Cc1ccccc1)C(=O)Nc1ccc([N+](=O)[O-])cc1` [suc-AAPF-pna, N-succinyl-alanine-alanine-proline-phenylalanyl-p-nitroanalide] (HELM PEPTIDE1{[O=C(O)CCC(=O)[*:2]].A.A.P.F.[O=[N+]([O-])c1ccc(N[*:1])cc1]}$$$$V2.0) as the compound, how does the kcat/Km [5] read?
Its kcat/Km is 300000 M⁻¹ s⁻¹.
